Experimental findings from patent US20240262814A1, “MODULATORS OF TREX1” (Constellation Pharmaceuticals, Inc., priority 2021, published 2024) are described below.

In one assay the target is T1, human TREX1 (Homo sapiens, UniProt Q9NSU2).
T1 construct: N-terminally His-Tev tagged full length human TREX1; made in house; host or cells: E. coli
T1 sequence (Q9NSU2 1-314): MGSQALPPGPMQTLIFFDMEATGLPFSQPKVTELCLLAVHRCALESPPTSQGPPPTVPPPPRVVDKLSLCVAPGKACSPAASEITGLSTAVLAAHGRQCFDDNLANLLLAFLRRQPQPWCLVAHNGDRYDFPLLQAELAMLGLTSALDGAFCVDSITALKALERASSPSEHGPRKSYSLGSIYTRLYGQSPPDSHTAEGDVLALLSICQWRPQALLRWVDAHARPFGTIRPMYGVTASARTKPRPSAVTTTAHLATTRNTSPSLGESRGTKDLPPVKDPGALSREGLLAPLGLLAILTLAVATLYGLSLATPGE
In words: hTREX1 Biochemical Assay (fluorescence, dsDNA substrate degradation). To be noted: full length human TREX1, 4 h pre-incubation, 18 h reaction at 25° C. How it is done:
(§1) Degradation of the dsDNA liberates free fluorophore to produce a fluorescent signal. Specifically, 7.5 μL of N-terminally His-Tev tagged full length human TREX1 (expressed in E. coli and purified in house) in reaction buffer (50 mM Tris, 150 mM NaCl, 2 mM DTT, 0.1 mg/mL BSA, 0.01% (w/v) Tween-20, 5 mM MgCl2, pH 7.4) was added to a 384-well Black ProxiPlate Plus (PerkinElmer) which already contained compound (150 nL) at varying concentrations as a 10 point dose-response in DMSO. The plate was incubated at 25° C. for 4 hours. Reactions were initiated by adding 7.5 μL of dsDNA substrate (Strand A: 5′ TEX615/GCT AGG CAG 3′; Strand B: 5′ CTG CCT AGC/IAbRQSp (Integrated DNA Technologies)) in reaction buffer. Final concentrations were 4 pM TREX1, 60 nM dsDNA substrate in reaction buffer with 1.0% DMSO (v/v). After 18 hours at 25° C., reactions were quenched by the addition of 2 p L of 500 mM EDTA. Final concentrations in the quenched reaction were 3.5 pM TREX1, 53 nM DNA and 59 mM EDTA in a volume of 17 μL. After a 5-minute incubation at room temperature, plates were read in an EnVision plate reader (PerkinElmer) measuring fluorescence at 615 nm following excitation w/ 570 nm light. IC50 values were calculated by comparing the measured fluorescence at 615 nm relative to control wells pre-quenched w/ EDTA (100% inhibition) and no inhibitor (0% inhibition) controls as using non-linear least square four parameter fits and either Genedata or GraphPad Prism (GraphPad Software, Inc.).

A further assay concerns the target T2, mouse TREX1 (Mus musculus, UniProt Q91XB0).
T2 construct: N-terminally His-Tev tagged full length mouse TREX1; made in house; host or cells: E. coli
T2 sequence (Q91XB0 1-314): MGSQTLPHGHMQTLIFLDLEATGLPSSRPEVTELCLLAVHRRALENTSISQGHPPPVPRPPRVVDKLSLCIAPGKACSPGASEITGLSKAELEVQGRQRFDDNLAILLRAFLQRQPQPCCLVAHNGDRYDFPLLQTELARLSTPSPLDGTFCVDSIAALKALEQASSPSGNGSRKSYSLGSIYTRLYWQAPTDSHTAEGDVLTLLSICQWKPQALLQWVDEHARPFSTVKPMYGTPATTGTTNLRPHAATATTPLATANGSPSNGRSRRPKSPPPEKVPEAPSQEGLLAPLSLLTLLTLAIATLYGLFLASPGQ
Briefly: mTREX1 Biochemical Assay (fluorescence, dsDNA substrate degradation). Conditions: full length mouse TREX1, 4 h pre-incubation, 18 h reaction at 25° C. How it is done: as §1, with “Specifically, 7.5 p L of N-terminally” for “Specifically, 7.5 μL of N-terminally”, “full length mouse TREX1 (expressed” for “full length human TREX1 (expressed”, “concentrations were 6 pM TREX1,” for “concentrations were 4 pM TREX1,”, “reaction were 5.3 pM TREX1,” for “reaction were 3.5 pM TREX1,”, “of 17 p L. After a” for “of 17 μL. After a”

Another assay has as its target T3, human TREX2 (Homo sapiens, UniProt Q9BQ50).
T3 construct: human TREX2 (residues M44-A279, expressed in E. coli); made in house; host or cells: E. coli
T3 sequence (Q9BQ50 44-279 isoform Q9BQ50-1): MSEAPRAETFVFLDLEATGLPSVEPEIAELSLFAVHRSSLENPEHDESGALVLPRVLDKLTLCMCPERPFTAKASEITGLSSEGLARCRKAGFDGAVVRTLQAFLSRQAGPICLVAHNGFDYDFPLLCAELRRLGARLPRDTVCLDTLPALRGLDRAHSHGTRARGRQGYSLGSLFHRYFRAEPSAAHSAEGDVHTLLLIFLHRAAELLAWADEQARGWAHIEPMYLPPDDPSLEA
In words: hTREX2 Biochemical Assay (selectivity hTREX1 vs hTREX2). To be noted: biochemical selectivity for hTREX1 vs hTREX2. How it is done: Degradation of the dsDNA liberates free fluorophore to produce a fluorescent signal. Specifically, 7.5 p L of N-terminally His-Tev tagged human TREX2 (residues M44-A279, expressed in E. coli and purified in house) in reaction buffer (50 mM Tris, 150 mM NaCl, 2 mM DTT, 0.1 mg/mL BSA, 0.01% (w/v) Tween-20, 5 mM MgCl2, pH 7.4) was added to a 384-well Black ProxiPlate Plus (PerkinElmer) which already contained compound (150 nL) at varying concentrations as a 10 point dose-response in DMSO. The plate was incubated at 25° C. for 4 hours. Reactions were initiated by adding 7.5 μL of dsDNA substrate (Strand A: 5′ TEX615/GCT AGG CAG 3′; Strand B: 5′ CTG CCT AGC/IAbRQSp (IDT)) in reaction buffer. Final concentrations were 50 pM TREX2, 60 nM dsDNA substrate in reaction buffer with 1.0% DMSO (v/v). After 18 hours at 25° C., reactions were quenched by the addition of 2 μL of 500 mM EDTA. Final concentrations in the quenched reaction mixture were 44 pM TREX2, 53 nM DNA and 59 mM EDTA in a volume of 17 μL. After a 5-minute incubation at room temperature, plates were read in an EnVision plate reader (PerkinElmer) measuring fluorescence at 615 nm following excitation w/ 570 nm light. IC50 values were calculated by comparing the measured fluorescence at 615 nm relative to control wells pre-quenched w/ stop buffer (100% inhibition) and no inhibitor (0% inhibition) controls as using non-linear least square four parameter fits and either Genedata or GraphPad Prism (GraphPad Software, Inc.).

SMILES strings stand for the structures. pIC50: −log10 of the molar value.

For `CC(c1nc(C(=O)Nc2cnoc2)c(O)c(=O)n1C)C(c1ccc(F)cc1F)c1ccccc1C#N` (single isomer, unassigned) [Example 13 Isomer 4], the pIC50 against human TREX1 is below 7.00; against mouse TREX1, below 8.00.

On to `CC(c1nc(C(=O)Nc2cnoc2)c(O)c(=O)n1C)C(c1ccccc1)c1cc(Cl)ccc1C#N` (single isomer, unassigned) [Example 8 Isomer 1], for which the pIC50 against human TREX1 was below 7.00; against mouse TREX1 it was below 8.00.

Take `CC(c1nc(C(=O)Nc2cnoc2)c(O)c(=O)n1C)C(c1ccccc1)c1ccccc1C#N` (single isomer, unassigned) [Example 3 Isomer 3]: the pIC50 against human TREX1 was below 7.00; against mouse TREX1, below 8.00. At human TREX2, the “hTREX1 vs hTREX2 selectivity” value is “A (A = <25 fold selective for hTREX1)”.

For the compound `CC(c1nc(C(=O)Nc2cnoc2)c(O)c(=O)[nH]1)C(c1ccccc1C#N)c1ccccc1C#N` (single isomer, unassigned) [Example 5 Isomer 2, 2-(1,1-bis(2-cyanophenyl)propan-2-yl)-5-hydroxy-N-(isoxazol-4-yl)-6-oxo-1,6-dihydropyrimidine-4-carboxamide], the results for the pIC50 at human TREX1 and at mouse TREX1 were 8.00 to 9.00 and below 8.00, respectively.

For the compound `C[C@H](c1nc(C(=O)Nc2cnoc2)c(O)c(=O)n1C)[C@H](c1ccccc1)c1ccc(C(=O)N(C)C)cc1C#N` (single isomer, unassigned) [Example 16 Isomer 1, 2-(1-(2-cyano-4-(dimethylcarbamoyl)phenyl)-1-phenylpropan-2-yl)-5-hydroxy-N-(isoxazol-4-yl)-1-methyl-6-oxo-1,6-dihydropyrimidine-4-carboxamide], the pIC50 on human TREX1 is 8.00 to 9.00; on mouse TREX1, below 8.00.

Take `CC(c1nc(C(=O)Nc2cnoc2)c(O)c(=O)n1C)C(c1ccc(F)c(F)c1)c1ccccc1C#N` (single isomer, unassigned) [Example 12 Isomer 2]: the pIC50 is below 7.00 against human TREX1 and below 8.00 at mouse TREX1.

As for `C[C@H](c1nc(C(=O)Nc2cnoc2)c(O)c(=O)n1C)[C@H](c1ccccc1)c1ccc(C(=O)N(C)C)cc1C#N` (single isomer, unassigned) [Example 16 Isomer 2, 2-(1-(2-cyano-4-(dimethylcarbamoyl)phenyl)-1-phenylpropan-2-yl)-5-hydroxy-N-(isoxazol-4-yl)-1-methyl-6-oxo-1,6-dihydropyrimidine-4-carboxamide], the pIC50 at human TREX1 is below 7.00; at mouse TREX1 it was below 8.00.

For the compound `CC(c1nc(C(=O)Nc2cnoc2)c(O)c(=O)n1C)C(c1ccccc1)c1ccc(Cl)cc1C#N` (single isomer, unassigned) [Example 9 Isomer 3], the pIC50 is below 7.00 against human TREX1 and below 8.00 at mouse TREX1.

As for `CC(c1nc(C(=O)Nc2cnoc2)c(O)c(=O)n1C)C(c1ccccc1)c1cc(F)ccc1C#N` (single isomer, unassigned) [Example 6 Isomer 2], the results for the pIC50 against human TREX1 and against mouse TREX1 were below 7.00 and below 8.00, respectively.

With `CC(c1nc(C(=O)Nc2cnoc2)c(O)c(=O)n1C)C(c1ccccc1)c1cc(C(=O)N(C)C)ccc1C#N` (single isomer, unassigned) [Example 17 Isomer 4], the pIC50 is 7.00 to 8.00 on human TREX1 and below 8.00 at mouse TREX1.

On to `CC(c1nc(C(=O)Nc2cnoc2)c(O)c(=O)n1C)C(c1ccccc1)c1ccc(F)cc1C#N` (single isomer, unassigned) [Example 7 Isomer 3], for which the results for the pIC50 against human TREX1 and against mouse TREX1 were below 7.00 and below 8.00, respectively.

Consider `CC(c1nc(C(=O)Nc2cnoc2)c(O)c(=O)n1C)C(c1cc(F)cc(F)c1)c1ccccc1C#N` (single isomer, unassigned) [Example 11 Isomer 1], for which the pIC50 against human TREX1 was below 7.00; against mouse TREX1 it was below 8.00.

In the case of `C[C@H](c1nc(C(=O)Nc2cnoc2)c(O)c(=O)n1C)[C@H](c1ccccc1)c1ccccc1C(F)(F)F` (single isomer, unassigned) [Example 14 Isomer 3, 5-Hydroxy-N-(isoxazol-4-yl)-1-methyl-6-oxo-2-(1-phenyl-1-(2-(trifluoromethyl)phenyl)propan-2-yl)-1,6-dihydropyrimidine-4-carboxamide], the values for the pIC50 against human TREX1 and against mouse TREX1 were below 7.00 and below 8.00, respectively.

In the case of `CC(c1nc(C(=O)Nc2cnoc2)c(O)c(=O)n1C)C(c1ccccc1)c1cc(C(=O)N(C)C)ccc1C#N` (single isomer, unassigned) [Example 17 Isomer 2], the pIC50 against human TREX1 is below 7.00; on mouse TREX1, below 8.00.

Turning to `Cn1c([C@@H](CF)C(c2ccccc2)c2ccccc2)nc(C(=O)Nc2cnoc2)c(O)c1=O` (single isomer, unassigned) [Example 18 Isomer 2, 2-(3-fluoro-1,1-diphenylpropan-2-yl)-5-hydroxy-N-(isoxazol-4-yl)-1-methyl-6-oxo-1,6-dihydropyrimidine-4-carboxamide], the pIC50 on human TREX1 was below 7.00; on mouse TREX1, below 8.00.

As a reminder, the pIC50 is the negative decadic logarithm of the IC50, by convention in mol/L.
